Measured values published in patent publication US12509437B2, “Substituted thiophene carboxamides and derivatives thereof as microbicides” (Bayer Aktiengesellschaft, priority 2019, dated 2025).
Where two headings read alike, the source gives them in different places.

Key:
[1] = LogP by HPLC on reversed phase columns (EEC directive 79/831 Annex V.A8); assay type: physicochemical; conditions: for chromatographic logP: reversed phase HPLC columns
Experimental: [table] If more than one Log P value is available within the same method, all the values are given and separated by “+”. Calibration was done with straight-chain alkan2-ones (with 3 to 16 carbon atoms) with known Log P values (measurement of Log P values using retention times with linear interpolation between successive alkanones). Lambda-max-values were determined using UV-spectra from 200 nm to 400 nm and the peak values of the chromatographic signals.

[2] = test system: salicylate responsive promoter sequence of the PR1 (pathogenesis-related protein I) gene (AT2G14610); experiment: Induction of defense gene expression in Arabidopsis thaliana (PR1 promoter-GFP reporter plants); assay type: in vivo; conditions: 72 h, 3rd day after spraying, mock treated leaves set as 1.00, read-out: relative fluorescence value
Experimental: Arabidopsis thaliana reporter plants containing the coding sequence of a green fluorescent protein (GFP) linked to the salicylate responsive promoter sequence of the PR1 (pathogenesis-related protein I) gene (AT2G14610) were grown for five days and then sprayed with compounds. On the 3rd day after spraying, plant fluorescence was assessed with a MacroFluo instrument from Leica Microsystems (Wetzlar, Germany). Fluorescences were quantified with the Meta-Morph Microscopy Automation & Image Analysis Software (Molecular Devices, Sunnyvale, Calif., United States). Background fluorescence in mock treated leaves was set as 1.00.

Peronospora parasitica = experiment: In vivo preventive test on Peronospora parasitica (Crucifer downy mildew) on cabbage; conditions: Hyaloperonospora parasitica, 120 h, sprayed 72 hours before inoculation, evaluated 5 days after inoculation, read-out: efficacy; for pest or weed control at 31 ppm: 31 ppm of active ingredient; for pest or weed control at 125 ppm: 125 ppm of active ingredient; for pest or weed control at 500 ppm: 500 ppm of active ingredient
Experimental: (§1) The tested active ingredients were prepared by homogenization in a mixture of acetone/Dimethyl sulfoxide/Tween®, and then diluted with water to obtain the desired active material concentration.
(§2) The young plants of cabbage were treated by spraying the active ingredient prepared as described above. Control plants were treated only with an aqueous solution of acetone/Dimethyl sulfoxide/Tween®.
After 72 hours, the plants were contaminated by spraying the leaves with an aqueous suspension of Peronospora parasitica spores. The contaminated cabbage plants were incubated for 5 days at 20° C. and at 100% relative humidity.
The test was evaluated 5 days after the inoculation. 0% means an efficacy which corresponds to that of the control plants while an efficacy of 100% means that no disease was observed.

Uromyces appendiculatus = experiment: In vivo preventive test on Uromyces appendiculatus (bean rust); conditions: 240 h, sprayed 72 hours before inoculation, evaluated 10 days after inoculation, read-out: efficacy; for pest or weed control at 500 ppm: 500 ppm of active ingredient
Experimental: as §1
The young plants of bean were treated by spraying the active ingredient prepared as described above. Control plants were treated only with an aqueous solution of acetone/Dimethyl sulfoxide/Tween®.
After 72 hours, the plants were contaminated by spraying the leaves with an aqueous suspension of Uromyces appendiculatus spores. The contaminated bean plants were incubated for 24 hours at 20° C. and at 100% relative humidity and then for 9 days at 20° C. and at 70-80% relative humidity.
The test was evaluated 10 days after the inoculation. 0% means an efficacy which corresponds to that of the control plants while an efficacy of 100% means that no disease was observed.

[3] = test system: Xanthomonas campestris pv. campestris; experiment: In vivo preventive test on Xanthomonas campestris pv. campestris (black rot on cabbage); conditions: Xanthomonas campestris, 500 ppm of active ingredient, sprayed 72 hours before inoculation, evaluated 8 or 10 days after inoculation, read-out: efficacy
Experimental: as §1, §2
After 72 hours, the plants were contaminated by spraying the leaves with an aqueous bacteria suspension of Xanthomonas campestris pv. campestris. The contaminated cabbage plants were incubated for 8 or 10 days at 27° C. at 95% relative humidity.
The test was evaluated 8 or 10 days after the inoculation. 0% means an efficacy which corresponds to that of the control plants while an efficacy of 100% means that no disease was observed.

[4] = method [a]: LC-UV, acidic range, 0.1% formic acid in water and acetonitrile as eluent

LogP ([1]; method [a])	Structure (SMILES)	further results
	CCCOC(=O)C1(NC(=O)c2sc(Br)c(Br)c2C)CCC1 [I.133]	chromatographic logP ([1]; method [a]): 4.23; fold induction at 75 ppm [2]: > 2; fold induction at 300 ppm [2]: > 2; pest or weed control at 31 ppm (Peronospora parasitica): 70 to 79%; pest or weed control at 125 ppm (Peronospora parasitica): 90 to 100%; pest or weed control at 500 ppm (Peronospora parasitica): 90 to 100%; pest or weed control at 31 ppm (Uromyces appendiculatus; 31 ppm of active ingredient): 90 to 100%; pest or weed control at 125 ppm (Uromyces appendiculatus; 125 ppm of active ingredient): 90 to 100%; pest or weed control at 500 ppm (Uromyces appendiculatus): 90 to 100%
	COC(=O)C(NC(=O)c1sc(Br)c(Br)c1Br)C1CC1 (stereo not shown) [CMP14, reference compound]	pest or weed control at 31 ppm (Peronospora parasitica): 0%; pest or weed control at 125 ppm (Peronospora parasitica): 0%
	O=C(O)c1ccccc1O [Salicylic acid, reference compound]	fold induction at 300 ppm [2]: 2.7
3.85^[a]	Cc1c(C(=O)NC(C#N)c2ccccc2)sc(Br)c1Br (stereo not shown) [I.029]	
	Cc1c(C(=O)NC2CNC(=O)C2)sc(Br)c1Br (stereo not shown) [I.065]	LogP [1, 4]: 1.89^[a]
	O=C(NC(C(=O)O)C1CC1)c1cc(Br)c(Br)s1 (stereo not shown) [CMP13, reference compound]	pest or weed control at 125 ppm (Peronospora parasitica): 0%
	Cc1c(C(=O)N[C@H]2CCSC2=O)sc(Br)c1Br [I.010]	LogP [1, 4]: 3.04^[a]
3.15^[a]	CCOC(=O)CN(C)C(=O)c1sc(Cl)c(Cl)c1C [I.057]	
4.30^[a]	CCOC(=O)C(CC1CC1)NC(=O)c1sc(Br)c(Br)c1C (stereo not shown) [I.092]	
1.77^[a]	Cc1c(C(=O)NC(CCC(N)=O)C(=O)O)sc(Br)c1Br (stereo not shown) [I.072]	
1.84^[a]	Cc1c(C(=O)NC(CO)C(=O)O)sc(Cl)c1Cl (stereo not shown) [I.067]	
3.00^[a]	COC(=O)CC(NC(=O)c1sc(Cl)c(Cl)c1C)C(=O)OC (stereo not shown) [I.118]	
4.15^[a]	CCOC(=O)C(Cc1c[nH]c2ccccc12)NC(=O)c1sc(Br)c(Br)c1C (stereo not shown) [I.036]	
2.82^[a]	COC(=O)C1(NC(=O)c2sc(Br)c(Br)c2C)CCOCC1 [I.107]	
2.21^[a]	CNC(=O)C1(NC(=O)c2sc(Br)c(Br)c2C)CC1 [I.130]	
	Cc1c(C(=O)NC2CCSC2=O)sc(Br)c1Br (stereo not shown) [I.002]	LogP [1, 4]: 3.04^[a]
2.80^[a]	Cc1c(C(=O)NC2(C#N)CC2)sc(Br)c1Br [I.027]	
3.14^[a]	COC(=O)CC(C)NC(=O)c1sc(Br)c(Br)c1C (stereo not shown) [I.109]	
4.59^[a]	CCCCOC(=O)C1(NC(=O)c2sc(Cl)c(Cl)c2C)CCC1 [I.157]	
2.53^[a]	CCOC(=O)[C@H](CO)NC(=O)c1sc(Cl)c(Cl)c1C [I.148]	
4.44^[a]	Cc1c(C(=O)NC(C(=O)OC2CCC2)C2CC2)sc(Cl)c1Cl (stereo not shown) [I.153]	
	CCCSC(=O)C1(NC(=O)c2sc(Br)c(Br)c2C)CC1 [I.134]	chromatographic logP ([1]; method [a]): 4.26; fold induction at 75 ppm [2]: > 2; fold induction at 300 ppm [2]: > 2; pest or weed control at 500 ppm (Peronospora parasitica): 80 to 89%; pest or weed control at 500 ppm (Uromyces appendiculatus): 90 to 100%

LogP ([1]; method [a])	Structure (SMILES)	further results
4.66^[a]	Cc1c(C(=S)NC2(C(=O)OC3CCC3)CC2)sc(Br)c1Br [I.127]	
	O=C(NC(C(=O)O)C1CC1)c1sc(Br)c(Br)c1Br (stereo not shown) [CMP8, reference compound]	pest or weed control at 500 ppm [3]: < 10%
4.01^[a]	COC(=O)C(NC(=O)c1sc(Br)c(Br)c1C)(C1CC1)C1CC1 [I.093]	
4.74^[a]	CCSC(=O)C(NC(=O)c1sc(Br)c(Br)c1C)C(C)C (stereo not shown) [I.008]	
1.92^[a]	CNC(=O)CNC(=O)c1sc(Cl)c(Cl)c1C [I.110]	
2.46^[a]	COC(=O)[C@H](CCC(=O)O)NC(=O)c1sc(Br)c(Br)c1C [I.104]	
3.59^[a]	COC(=O)C(CCSC(C)=O)NC(=O)c1sc(Cl)c(Cl)c1C (stereo not shown) [I.117]	
2.06^[a]	COC(=O)[C@H](CCC(N)=O)NC(=O)c1sc(Cl)c(Cl)c1C [I.046]	
3.06^[a]	CCOC(=O)CCNC(=O)c1sc(Cl)c(Cl)c1C [I.038]	
3.87^[a]	CCOC(=O)C(NC(=O)c1sc(Br)c(Br)c1C)C(=O)OCC [I.094]	
3.84^[a]	CCOC(=O)CCC(NC(=O)c1sc(Cl)c(Cl)c1C)C(=O)OCC (stereo not shown) [I.124]	
2.12^[a]	COC(=O)[C@@H](CC(N)=O)NC(=O)c1sc(Br)c(Br)c1C [I.052]	
2.05^[a]	COC(=O)[C@@H](CC(N)=O)NC(=O)c1sc(Cl)c(Cl)c1C [I.054]	
3.10^[a]	COC(=O)C(NC(=O)c1sc(Br)c(Br)c1C)C(=O)OC [I.091]	
2.94^[a]	Cc1c(C(=O)NC2(C(=O)NC3CCC3)CC2)sc(Br)c1Br [I.135]	
2.31^[a]	Cc1c(C(=O)NC(C(=O)NO)C(C)C)sc(Br)c1Br (stereo not shown) [I.115]	
1.73^[a]	Cc1c(C(=O)NC(CC(N)=O)C(=O)O)sc(Cl)c1Cl (stereo not shown) [I.068]	
3.13^[a]	COC(=O)C(C1CC1)N(O)C(=O)c1sc(Cl)c(Cl)c1C (stereo not shown) [I.114]	
	CCCOC(=O)C1(NC(=O)c2cc(Br)c(Br)s2)CC1 [CMP7, reference compound]	pest or weed control at 500 ppm (Peronospora parasitica): 0%
4.23^[a]	CCOC(=O)C(CC1CC1)NC(=O)c1sc(Cl)c(Cl)c1C (stereo not shown) [I.085]	
4.87^[a]	Cc1c(C(=O)NC2(C3(C(=O)OC(C)C)CC3)CC2)sc(Br)c1Br [I.020]	
2.02^[a]	COC(=O)[C@H](CC(N)=O)NC(=O)c1sc(Cl)c(Cl)c1C [I.055]	

LogP ([1]; method [a])	Structure (SMILES)	further results
4.48^[a]	Cc1c(C(=O)NC2(C(=O)OC(C)(C)C)CC(F)(F)C2)sc(Cl)c1Cl [I.145]	
3.50^[a]	Cc1c(C(=O)NC2(C#N)CCCSC2)sc(Br)c1Br (stereo not shown) [I.177]	
2.91^[a]	Cc1c(C(=S)NC2(C(=O)O)CC2)sc(Br)c1Br [I.102]	
4.10^[a]	Cc1c(C(=O)NCC(=O)Sc2ccccc2)sc(Br)c1Br [I.011]	
3.64^[a]	Cc1c(C(=O)NC(C#N)C(C)C)sc(Br)c1Br (stereo not shown) [I.028]	
	Cc1c(C(=O)NC2CCNC2=O)sc(Br)c1Br (stereo not shown) [I.064]	LogP [1, 4]: 1.93^[a]
	Cc1c(C(=O)NC2CCOC2=O)sc(Cl)c1Cl (stereo not shown) [I.147]	LogP [1, 4]: 2.40^[a]
	Cc1c(C(=O)N[C@H]2CCOC2=O)sc(Cl)c1Cl [I.167]	LogP [1, 4]: 2.34^[a]
	Cc1c(C(=O)NC2(C(=O)O)CC2)sc(Cl)c1Cl [1-{[(4,5-dichloro-3-methyl-2-thienyl)carbonyl]amino}cyclopropanecarboxylic acid]	chromatographic logP ([1]; preparation examples, method not indicated, read-out: Log P): 2.17
4.09^[a]	CCOC(=O)C1(NC(=O)c2sc(Br)c(Br)c2C)CCCC1 [I.106]	
2.50^[a]	Cc1c(C(=O)NCC2(C(=O)O)CC2)sc(Br)c1Br [I.019]	
4.01^[a]	Cc1c(C(=O)NC(C#N)Cc2ccccc2)sc(Br)c1Br (stereo not shown) [I.030]	
	Cc1c(C(=O)NC2CCNC(=O)C2)sc(Br)c1Br (stereo not shown) [I.066]	LogP [1, 4]: 1.93^[a]
4.15^[a]	CCOC(=O)C1(NC(=S)c2sc(Br)c(Br)c2C)CC1 [I.100]	
3.76^[a]	CCOC(=O)CC(NC(=O)c1sc(Cl)c(Cl)c1C)C(=O)OCC (stereo not shown) [I.123]	
3.68^[a]	COC(=O)C1(NC(=S)c2sc(Cl)c(Cl)c2C)CC1 [I.050]	
2.67^[a]	Cc1c(C(=O)NC(C(=O)NC(C(=O)O)C2CC2)C2CC2)sc(Cl)c1Cl (stereo not shown) [I.096]	
1.96^[a]	Cc1c(C(=O)NC2(C(N)=O)CC2)sc(Cl)c1Cl [I.063]	
3.07^[a]	Cc1c(C(=O)NC(Cc2c[nH]c3ccccc23)C(=O)O)sc(Br)c1Br (stereo not shown) [I.073]	
3.51^[a]	CCOC(=O)C(CSC(C)=O)NC(=O)c1sc(Cl)c(Cl)c1C (stereo not shown) [I.126]	
3.87^[a]	CCOC(=O)CN(OC)C(=O)c1sc(Cl)c(Cl)c1C [I.098]	
2.13^[a]	COC(=O)C(CCC(N)=O)NC(=O)c1sc(Br)c(Br)c1C (stereo not shown) [I.138]	
